Measured values taken from PubChem BioAssay (NCI).
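Values below derive from 48-hour exposures of cells grown in 96-well plates, with endpoints linearly interpolated between the two concentrations bracketing the appropriate inhibition level. Abbreviation: GI50, concentration required for 50% inhibition of growth. TGI: total growth inhibition.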

How the values were obtained:
Assay in all cases: NCI tumour cell line growth inhibition, 48 h
786-0 renal = system: 786-0 renal
A498 renal = system: A498 renal
A549 NSCLC = system: A549 NSCLC
ACHN renal = system: ACHN renal
BT-549 breast = system: BT-549 breast
CAKI-1 renal = system: CAKI-1 renal
CCRF-CEM leukemia = system: CCRF-CEM leukemia
COLO 205 colon = system: COLO 205 colon
DU-145 prostate = system: DU-145 prostate
HCC-2998 colon = system: HCC-2998 colon
HCT-116 colon = system: HCT-116 colon
HCT-15 colon = system: HCT-15 colon
HL-60(TB) leukemia = system: HL-60(TB) leukemia
HOP-62 NSCLC = system: HOP-62 NSCLC
HS 578T breast = system: HS 578T breast
HT29 colon = system: HT29 colon
IGROV1 ovarian = system: IGROV1 ovarian
K-562 leukemia = system: K-562 leukemia
KM12 colon = system: KM12 colon
LOX IMVI melanoma = system: LOX IMVI melanoma
M14 melanoma = system: M14 melanoma
MALME-3M melanoma = system: MALME-3M melanoma
MCF7 breast = system: MCF7 breast
MDA-MB-231 breast = system: MDA-MB-231 breast
MDA-MB-435 = system: MDA-MB-435
MOLT-4 leukemia = system: MOLT-4 leukemia
NCI-H226 lung = system: NCI-H226 lung
NCI-H23 lung = system: NCI-H23 lung
NCI-H460 lung = system: NCI-H460 lung
NCI-H522 lung = system: NCI-H522 lung
NCI/ADR-RES ovarian = system: NCI/ADR-RES ovarian
OVCAR-3 ovarian = system: OVCAR-3 ovarian
OVCAR-4 ovarian = system: OVCAR-4 ovarian
OVCAR-5 ovarian = system: OVCAR-5 ovarian
OVCAR-8 ovarian = system: OVCAR-8 ovarian
PC-3 prostate = system: PC-3 prostate
RPMI-8226 leukemia = system: RPMI-8226 leukemia
RXF 393 renal = system: RXF 393 renal
SF-268 CNS = system: SF-268 CNS
SF-295 CNS = system: SF-295 CNS
SF-539 CNS = system: SF-539 CNS
SK-MEL-2 melanoma = system: SK-MEL-2 melanoma
SK-MEL-28 melanoma = system: SK-MEL-28 melanoma
SK-MEL-5 melanoma = system: SK-MEL-5 melanoma
SK-OV-3 ovarian = system: SK-OV-3 ovarian
SN12C renal = system: SN12C renal
SNB-19 CNS = system: SNB-19 CNS
SNB-75 CNS = system: SNB-75 CNS
SR leukemia = system: SR leukemia
SW-620 colon = system: SW-620 colon
T-47D breast = system: T-47D breast
TK-10 renal = system: TK-10 renal
U251 CNS = system: U251 CNS
UACC-62 melanoma = system: UACC-62 melanoma
UO-31 renal = system: UO-31 renal

Structure (SMILES): Cn1cc(C2=C(c3c[nH]c4ccccc34)C(=O)NC2=O)c2ccccc21
- GI50 (786-0 renal): 0.446 µM
- TGI (786-0 renal): > 25 µM
- GI50 (A498 renal): 0.169 µM
- TGI (A498 renal): 0.755 µM
- GI50 (A549 NSCLC): 1.66 µM
- TGI (A549 NSCLC): > 25 µM
- GI50 (ACHN renal): 1.73 µM
- TGI (ACHN renal): > 25 µM
- GI50 (BT-549 breast): 0.314 µM
- TGI (BT-549 breast): > 7.28 µM
- GI50 (CAKI-1 renal): 0.523 µM
- TGI (CAKI-1 renal): > 25 µM
- GI50 (CCRF-CEM leukemia): 0.264 µM
- GI50 (COLO 205 colon): 1.25 µM
- TGI (COLO 205 colon): > 25 µM
- GI50 (DU-145 prostate): 2.37 µM
- TGI (DU-145 prostate): > 25 µM
- GI50 (HCC-2998 colon): 6.66 µM
- TGI (HCC-2998 colon): > 25 µM
- GI50 (HCT-116 colon): 1.51 µM
- TGI (HCT-116 colon): > 25 µM
- GI50 (HCT-15 colon): 1.12 µM
- TGI (HCT-15 colon): > 25 µM
- GI50 (HL-60(TB) leukemia): 0.871 µM
- TGI (HL-60(TB) leukemia): 6.35 µM
- GI50 (HOP-62 NSCLC): 0.585 µM
- TGI (HOP-62 NSCLC): > 25 µM
- GI50 (HS 578T breast): 0.151 µM
- TGI (HS 578T breast): > 25 µM
- GI50 (HT29 colon): 0.968 µM
- TGI (HT29 colon): > 25 µM
- GI50 (IGROV1 ovarian): 0.975 µM
- TGI (IGROV1 ovarian): > 25 µM
- GI50 (K-562 leukemia): 0.704 µM
- TGI (K-562 leukemia): > 25 µM
- GI50 (KM12 colon): 0.586 µM
- TGI (KM12 colon): > 25 µM
- GI50 (LOX IMVI melanoma): 1.3 µM
- TGI (LOX IMVI melanoma): > 25 µM
- GI50 (M14 melanoma): 1.24 µM
- TGI (M14 melanoma): > 25 µM
- GI50 (MALME-3M melanoma): 0.143 µM
- TGI (MALME-3M melanoma): > 25 µM
- GI50 (MCF7 breast): 0.278 µM
- TGI (MCF7 breast): > 25 µM
- GI50 (MDA-MB-231 breast): 9.06 µM
- TGI (MDA-MB-231 breast): > 25 µM
- GI50 (MDA-MB-435): 0.937 µM
- TGI (MDA-MB-435): > 25 µM
- GI50 (MOLT-4 leukemia): 0.458 µM
- GI50 (NCI-H226 lung): 1.99 µM
- TGI (NCI-H226 lung): > 25 µM
- GI50 (NCI-H23 lung): 0.218 µM
- TGI (NCI-H23 lung): > 25 µM
- GI50 (NCI-H460 lung): 0.732 µM
- TGI (NCI-H460 lung): > 25 µM
- GI50 (NCI-H522 lung): 2.11 µM
- TGI (NCI-H522 lung): > 25 µM
- GI50 (NCI/ADR-RES ovarian): 3.33 µM
- TGI (NCI/ADR-RES ovarian): > 25 µM
- GI50 (OVCAR-3 ovarian): 0.94 µM
- TGI (OVCAR-3 ovarian): > 11.9 µM
- GI50 (OVCAR-4 ovarian): > 5.06 µM
- TGI (OVCAR-4 ovarian): > 25 µM
- GI50 (OVCAR-5 ovarian): > 25 µM
- TGI (OVCAR-5 ovarian): > 25 µM
- GI50 (OVCAR-8 ovarian): 1.51 µM
- TGI (OVCAR-8 ovarian): > 25 µM
- GI50 (PC-3 prostate): 3.91 µM
- TGI (PC-3 prostate): > 25 µM
- GI50 (RPMI-8226 leukemia): 1.57 µM
- TGI (RPMI-8226 leukemia): > 20.8 µM
- GI50 (RXF 393 renal): 0.198 µM
- TGI (RXF 393 renal): 1.96 µM
- GI50 (SF-268 CNS): 1.1 µM
- TGI (SF-268 CNS): > 25 µM
- GI50 (SF-295 CNS): 0.201 µM
- GI50 (SF-539 CNS): 0.195 µM
- TGI (SF-539 CNS): 1.14 µM
- GI50 (SK-MEL-2 melanoma): 1.09 µM
- TGI (SK-MEL-2 melanoma): > 25 µM
- GI50 (SK-MEL-28 melanoma): 7 µM
- TGI (SK-MEL-28 melanoma): > 25 µM
- GI50 (SK-MEL-5 melanoma): 0.859 µM
- TGI (SK-MEL-5 melanoma): 3.1 µM
- GI50 (SK-OV-3 ovarian): 1.08 µM
- TGI (SK-OV-3 ovarian): > 25 µM
- GI50 (SN12C renal): 1.32 µM
- TGI (SN12C renal): > 25 µM
- GI50 (SNB-19 CNS): 3.31 µM
- TGI (SNB-19 CNS): > 25 µM
- GI50 (SNB-75 CNS): 0.071 µM
- TGI (SNB-75 CNS): > 7.62 µM
- GI50 (SR leukemia): 0.233 µM
- GI50 (SW-620 colon): > 4.92 µM
- TGI (SW-620 colon): > 25 µM
- GI50 (T-47D breast): 0.846 µM
- TGI (T-47D breast): > 25 µM
- GI50 (TK-10 renal): 0.132 µM
- TGI (TK-10 renal): > 25 µM
- GI50 (U251 CNS): 1.36 µM
- TGI (U251 CNS): > 25 µM
- GI50 (UACC-62 melanoma): 1.59 µM
- TGI (UACC-62 melanoma): > 25 µM
- GI50 (UO-31 renal): 0.334 µM
- TGI (UO-31 renal): > 25 µM
